≈ marks a conversion by molar mass, not a printed value. Like-named read-outs stand apart in the source and are kept apart here.
Key:
[1] = Storage stability determination of upadacitinib cocrystals (open dish, 40° C./75% RH); assay type: physicochemical; parameters: reference not given here; details: chemical purity after storage in open dish at 40° C./75% RH up to one month
Description: A storage stability study was performed to determine the short term stability for each of the five upadacitinib cocrystals disclosed herein. Samples of each upadacitinib cocrystal were stored in an open dish at 40° C./75% relative humidity (RH) for up to one month.

[2] = Aqueous solubility determination of upadacitinib cocrystals; assay type: physicochemical; details: aqueous solubility in water at 37° C., equilibrated by end-over-end tumbling for up to 24 hours
Description: A solubility study was performed to determine the aqueous solubility for five of the upadacitinib cocrystals disclosed herein. Sufficiently sized samples of the solid cocrystals were added to individual vials along with a measured volume of water. The water-cocrystal mixtures were equilibrated at 37° C. by end-over-end tumbling for up to 24 hours. The amount of dissolved solid was determined for each sample.

Row | Purity [1] [%] | Solubility [2] [mg/mL] | Solubility ([2]; thermodynamic from solid, read-out: Solubility) [mg/mL] | Compound
1 | 102.7 | 4.29 ± 0.05 |  | CC[C@@H]1CN(C(=O)NCC(F)(F)F)C[C@@H]1c1cnc2cnc3[nH]ccc3n12.O=C(O)c1ccc(O)cc1 [4-hydroxybenzoic acid cocrystal]
2 | 100.2 |  | 0.37 ± 0.004 (≈ 973 µM) | CC[C@@H]1CN(C(=O)NCC(F)(F)F)C[C@@H]1c1cnc2cnc3[nH]ccc3n12 [Upadacitinib Form I, (3S,4R)-3-ethyl-4-(3H-imidazo[1,2-a]pyrrolo[2,3-e]pyrazin-8-yl)-N-(2,2,2-trifluoroethyl)pyrrolidine-1-carboxamide, reference compound]

The next lines start with the compound.

Row | Compound | Purity [1] [%] | Solubility [2] [mg/mL] | Solubility ([2]; thermodynamic from solid, read-out: Solubility) [mg/mL]
3 | CC[C@@H]1CN(C(=O)NCC(F)(F)F)C[C@@H]1c1cnc2cnc3[nH]ccc3n12.O=C(O)c1ccc(O)c(O)c1 [3,4-dihydroxybenzoic acid cocrystal] | 103.9 | 11.3 ± 0.2 | 
4 | CC(=O)Nc1ccc(C(=O)O)cc1.CC[C@@H]1CN(C(=O)NCC(F)(F)F)C[C@@H]1c1cnc2cnc3[nH]ccc3n12 [4-acetamidobenzoic acid cocrystal] | 100.0 | 2.53 ± 0.03 | 
5 | CC[C@@H]1CN(C(=O)NCC(F)(F)F)C[C@@H]1c1cnc2cnc3[nH]ccc3n12.O=C(O)c1ccc(O)c([N+](=O)[O-])c1 [4-hydroxy-3-nitrobenzoic acid cocrystal] | 99.9 | 1.47 ± 0.01 | 
6 | CCC1CN(C(=O)NCC(F)(F)F)CC1c1cnc2cnc3[nH]ccc3n12.O=C(O)c1cc(O)c(O)c(O)c1 (stereo not drawn) [gallic acid cocrystal] | 103.8 | 5.13 ± 0.05 | 
